Reference: PubChem BioAssay (NCI)
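Each compound was tested at five concentrations against cells in 96-well plates for 48 hours. The concentration for full growth arrest is given as TGI.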

What was measured:
Test in all cases: growth of human tumour cells (NCI), 48 h
[1] = system: 786-0 renal
[2] = system: KM12 colon
[3] = system: SNB-75 CNS
[4] = system: A498 renal
[5] = system: OVCAR-3 ovarian
[6] = system: A549 NSCLC
[7] = system: TK-10 renal
[8] = system: SF-295 CNS
[9] = system: RXF 393 renal
[10] = system: MALME-3M melanoma
[11] = system: MCF7 breast
[12] = system: T-47D breast
[13] = system: HS 578T breast
[14] = system: HCC-2998 colon
[15] = system: SK-OV-3 ovarian
[16] = system: HOP-62 NSCLC
[17] = system: UO-31 renal
[18] = system: DU-145 prostate
[19] = system: MDA-MB-435
[20] = system: HOP-92 NSCLC
[21] = system: NCI/ADR-RES ovarian
[22] = system: NCI-H23 lung
[23] = system: SK-MEL-28 melanoma
[24] = system: NCI-H522 lung
[25] = system: HL-60(TB) leukemia
[26] = system: ACHN renal
[27] = system: MDA-N
[28] = system: UACC-62 melanoma
[29] = system: SW-620 colon
[30] = system: MOLT-4 leukemia
[31] = system: HCT-15 colon
[32] = system: HT29 colon
[33] = system: RPMI-8226 leukemia
[34] = system: BT-549 breast
[35] = system: CCRF-CEM leukemia
[36] = system: OVCAR-5 ovarian
[37] = system: COLO 205 colon
[38] = system: OVCAR-8 ovarian
[39] = system: NCI-H460 lung
[40] = system: SN12C renal
[41] = system: CAKI-1 renal
[42] = system: HCT-116 colon
[43] = system: OVCAR-4 ovarian
[44] = system: K-562 leukemia
[45] = system: M14 melanoma
[46] = system: SNB-19 CNS
[47] = system: UACC-257 melanoma
[48] = system: SK-MEL-5 melanoma
[49] = system: IGROV1 ovarian
[50] = system: PC-3 prostate
[51] = system: LOX IMVI melanoma
[52] = system: NCI-H226 lung
[53] = system: SF-268 CNS
[54] = system: U251 CNS
[55] = system: SF-539 CNS
[56] = system: SK-MEL-2 melanoma
[57] = system: EKVX NSCLC
[58] = system: SR leukemia
[59] = system: MDA-MB-231 breast

With `Cc1c(Cl)c(S(N)(=O)=O)cc(S(N)(=O)=O)c1NC(=O)c1ccc(Cl)cc1` the TGI [1] was over 100 µM, the TGI [2] was over 100 µM and the TGI [3] was over 100 µM. The TGI [4] was over 100 µM, the TGI [5] was over 100 µM and the TGI [6] was over 100 µM. The TGI [7] was over 100 µM, the TGI [8] was over 100 µM and the TGI [9] was over 100 µM. For the same compound, the TGI [10] was over 100 µM, the TGI [11] was over 100 µM and the TGI [12] was over 100 µM. For the same compound, the TGI [13] was over 100 µM, the TGI [14] was over 100 µM and the TGI [15] was over 100 µM. It also gave a TGI [16] of over 100 µM, a TGI [17] of over 100 µM and a TGI [18] of over 100 µM. It also gave a TGI [19] of over 100 µM, a TGI [20] of over 100 µM and a TGI [21] of over 100 µM. It also gave a TGI [22] of over 100 µM, a TGI [23] of over 100 µM and a TGI [24] of over 100 µM. For the same compound, the TGI [25] was over 100 µM, the TGI [26] was over 100 µM and the TGI [27] was over 100 µM. It also gave a TGI [28] of over 100 µM, a TGI [29] of over 100 µM and a TGI [30] of over 100 µM. For the same compound, the TGI [31] was over 100 µM, the TGI [32] was over 100 µM and the TGI [33] was over 100 µM. It also gave a TGI [34] of over 100 µM, a TGI [35] of over 100 µM and a TGI [36] of over 100 µM. It also gave a TGI [37] of over 100 µM, a TGI [38] of over 100 µM and a TGI [39] of over 100 µM. It also gave a TGI [40] of over 100 µM, a TGI [41] of over 100 µM and a TGI [42] of over 100 µM. The TGI [43] was over 100 µM, the TGI [44] was over 100 µM and the TGI [45] was over 100 µM. For the same compound, the TGI [46] was over 100 µM, the TGI [47] was over 100 µM and the TGI [48] was over 100 µM. The TGI [49] was over 100 µM, the TGI [50] was over 100 µM and the TGI [51] was over 100 µM. It also gave a TGI [52] of over 100 µM, a TGI [53] of over 100 µM and a TGI [54] of over 100 µM.
With `CC1(C)[C@@H]2C[C@H]1C(Cc1ccccc1C[C@H]1c3cc(-c4ccccn4)ncc3[C@H]3C[C@@H]1C3(C)C)c1cc(-c3ccccn3)ncc12` (stereo not given in full) the TGI [2] was 13.4 µM, the TGI [3] was over 100 µM and the TGI [4] was 4.89 µM. It also gave a TGI [5] of 1.45 µM, a TGI [55] of 8.42 µM and a TGI [6] of over 100 µM. The TGI [7] was over 78.7 µM, the TGI [8] was over 55.1 µM and the TGI [9] was over 25.1 µM. It also gave a TGI [10] of over 100 µM, a TGI [11] of over 100 µM and a TGI [12] of 3.6 µM. The TGI [56] was over 90.3 µM, the TGI [13] was over 100 µM and the TGI [14] was 39.8 µM. For the same compound, the TGI [15] was over 100 µM, the TGI [16] was 0.328 µM and the TGI [17] was 2.41 µM. For the same compound, the TGI [18] was over 37.9 µM, the TGI [19] was over 42.2 µM and the TGI [21] was over 36.7 µM. The TGI [22] was over 100 µM, the TGI [23] was over 100 µM and the TGI [24] was over 22 µM. It also gave a TGI [25] of 0.65 µM, a TGI [26] of 4.83 µM and a TGI [27] of over 100 µM. The TGI [28] was 4.15 µM, the TGI [57] was over 100 µM and the TGI [29] was over 100 µM. For the same compound, the TGI [30] was 1.23 µM, the TGI [58] was 1.28 µM and the TGI [31] was over 100 µM. It also gave a TGI [32] of over 100 µM, a TGI [33] of 3.33 µM and a TGI [34] of over 31.6 µM. For the same compound, the TGI [35] was 0.899 µM, the TGI [36] was over 100 µM and the TGI [37] was over 100 µM. The TGI [38] was over 25.5 µM, the TGI [39] was over 31.9 µM and the TGI [40] was over 100 µM. It also gave a TGI [41] of over 40.8 µM, a TGI [42] of 10.1 µM and a TGI [43] of over 100 µM. The TGI [59] was over 68 µM, the TGI [44] was over 100 µM and the TGI [46] was over 100 µM. The TGI [48] was 28.1 µM, the TGI [49] was 26.2 µM and the TGI [51] was 1.48 µM. It also gave a TGI [53] of over 36.2 µM and a TGI [54] of over 28.8 µM.
In the case of `CCOC(=O)c1c(SCC#N)n(-c2ccccc2)c(=S)n(-c2ccccc2)c1=O`, the TGI [1] was over 100 µM, the TGI [2] was over 100 µM and the TGI [3] was 90.3 µM. For the same compound, the TGI [5] was over 100 µM, the TGI [6] was over 100 µM and the TGI [7] was over 100 µM. It also gave a TGI [8] of over 100 µM, a TGI [10] of over 100 µM and a TGI [11] of over 100 µM. It also gave a TGI [12] of over 100 µM, a TGI [56] of over 100 µM and a TGI [13] of over 100 µM. The TGI [15] was over 100 µM, the TGI [16] was over 100 µM and the TGI [17] was over 100 µM. For the same compound, the TGI [18] was over 100 µM, the TGI [19] was over 100 µM and the TGI [20] was 93.3 µM. The TGI [21] was over 100 µM, the TGI [22] was over 100 µM and the TGI [23] was over 100 µM. For the same compound, the TGI [24] was over 100 µM, the TGI [25] was over 100 µM and the TGI [26] was over 100 µM. The TGI [27] was over 100 µM, the TGI [28] was over 100 µM and the TGI [57] was over 100 µM. For the same compound, the TGI [29] was over 100 µM, the TGI [30] was 67.6 µM and the TGI [58] was over 100 µM. It also gave a TGI [31] of over 100 µM, a TGI [32] of over 100 µM and a TGI [33] of over 100 µM. For the same compound, the TGI [34] was over 100 µM, the TGI [35] was over 100 µM and the TGI [36] was over 100 µM. It also gave a TGI [37] of over 100 µM, a TGI [38] of over 100 µM and a TGI [39] of over 100 µM. The TGI [40] was over 100 µM, the TGI [41] was over 100 µM and the TGI [42] was over 100 µM. It also gave a TGI [43] of over 100 µM, a TGI [44] of over 100 µM and a TGI [45] of over 100 µM. For the same compound, the TGI [46] was over 100 µM, the TGI [47] was over 100 µM and the TGI [48] was over 100 µM. The TGI [49] was over 100 µM, the TGI [50] was over 100 µM and the TGI [51] was over 100 µM. The TGI [52] was over 100 µM, the TGI [53] was over 100 µM and the TGI [54] was over 100 µM.
`CN(C)CCCNC(=O)c1cc(NC(=O)CCCn2c3ccccc3c3ccccc32)cn1C` showed a TGI [1] of over 100 µM, a TGI [2] of over 100 µM and a TGI [3] of over 100 µM. The TGI [4] was 71.3 µM, the TGI [5] was over 100 µM and the TGI [55] was over 100 µM. It also gave a TGI [6] of over 100 µM, a TGI [7] of 82 µM and a TGI [8] of over 100 µM. The TGI [9] was over 100 µM, the TGI [10] was 61.7 µM and the TGI [11] was over 100 µM. It also gave a TGI [12] of 75.2 µM, a TGI [56] of over 100 µM and a TGI [15] of over 100 µM. It also gave a TGI [16] of over 100 µM, a TGI [17] of over 100 µM and a TGI [18] of over 100 µM. It also gave a TGI [19] of over 100 µM, a TGI [20] of 9.32 µM and a TGI [21] of over 100 µM. It also gave a TGI [22] of over 100 µM, a TGI [23] of over 100 µM and a TGI [25] of over 100 µM. The TGI [26] was over 100 µM, the TGI [27] was over 100 µM and the TGI [28] was over 100 µM. For the same compound, the TGI [57] was 92 µM, the TGI [29] was over 100 µM and the TGI [30] was over 100 µM. It also gave a TGI [31] of over 100 µM, a TGI [32] of over 100 µM and a TGI [33] of over 100 µM. For the same compound, the TGI [34] was over 100 µM, the TGI [35] was over 100 µM and the TGI [36] was over 100 µM. For the same compound, the TGI [37] was 59.8 µM, the TGI [38] was over 100 µM and the TGI [39] was over 100 µM. For the same compound, the TGI [40] was over 100 µM, the TGI [41] was over 100 µM and the TGI [42] was over 100 µM. The TGI [43] was over 100 µM, the TGI [59] was over 100 µM and the TGI [44] was over 100 µM. It also gave a TGI [45] of over 100 µM, a TGI [46] of over 100 µM and a TGI [48] of over 100 µM. For the same compound, the TGI [49] was 33.9 µM, the TGI [50] was over 100 µM and the TGI [51] was over 100 µM. It also gave a TGI [52] of over 100 µM, a TGI [53] of over 100 µM and a TGI [54] of over 100 µM.
